Assay results published in patent publication US20020137929A1, “1 - (3-heterocyclylphenyl) isothiourea, -isourea, -guanidine and -amidine herbicidal agents” (Intellectual Property Department, BASF Aktiengesellschaft, priority 1998, published 2002).

Tests used:
[1] = tested on: TRZAWR (Wheat, Winter, cv Riband); test: Postemergence herbicidal evaluation; assay type: in vivo, Triticum aestivum; conditions: postemergence
Method in brief: (§1)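 Compound is applied as a foliar spray to seedlings about two weeks old, formulated in equal parts acetone and water with 0.5% TWEEN 20 and delivered at 40 psi to give about 0.0156–0.500 kg per hectare. Injury is rated visually 0–9 after four to five weeks.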

[2] = tested on: IPOHE (Morningglory, Ivyleaf); test: Preemergence herbicidal evaluation; assay type: in vivo, Ipomoea hederacea; conditions: rated 4-5 weeks after treatment
Method in brief: (§2)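 Rating at 4–5 wk post-spray on a 0–9 visual scale vs control. Application: aqueous acetone, ~0.0156–0.500 kg/ha, to soil surface after seeding, preemergence.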

GALAP (Galium) = test: Preemergence herbicidal evaluation; assay type: in vivo, Galium aparine; conditions: rated 4-5 weeks after treatment
Method in brief: as §2

[3] = tested on: ECHORC (Watergrass (Calif.)); test: Postemergence weed control under flooded paddy conditions; assay type: in vivo, Echinochloa oryzoides; conditions: postemergence weeds, rated 3 to 4 weeks after treatment
Method in brief: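 Weeds 3 to 5 cm tall and rice seedlings at the 1.5 to 2.5 leaf stage were flooded, with water held 1.5 to 3 cm above the soil. Compounds in 50/50 v/v aqueous/acetone went into the flood water at about 0.0313 to 0.500 kg/ha. Visual 0-9 ratings versus control were made 3 to 4 weeks later.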

ECHCG (Barnyardgrass) [4] = test: Postemergence herbicidal evaluation; assay type: in vivo, Echinochloa crus-galli; conditions: postemergence
Method in brief: as §1

[5] = tested on: CHEAL (Lambsquarters, Common); test: Preemergence herbicidal evaluation; assay type: in vivo, Chenopodium album; conditions: rated 4-5 weeks after treatment
Method in brief: as §2

CASOB (Sicklepod) = test: Preemergence herbicidal evaluation; assay type: in vivo, Cassia obtusifolia; conditions: rated 4-5 weeks after treatment
Method in brief: as §2

SETVI (Foxtail, Green) = test: Postemergence herbicidal evaluation; assay type: in vivo, Setaria viridis; conditions: postemergence
Method in brief: as §1

ECHCG (Barnyardgrass) [6] = test: Preemergence herbicidal evaluation; assay type: in vivo, Echinochloa crus-galli; conditions: rated 4-5 weeks after treatment
Method in brief: as §2

AMBEL (Ragweed, Common) = test: Postemergence herbicidal evaluation; assay type: in vivo, Ambrosia artemisifolia; conditions: postemergence
Method in brief: as §1

[7] = tested on: IPOHE (Morningglory, Ivyleaf); test: Postemergence herbicidal evaluation; assay type: in vivo, Ipomoea hederacea; conditions: postemergence
Method in brief: as §1

ZEAMX (Corn, Field) = test: Preemergence herbicidal evaluation; assay type: in vivo, Zea mays; conditions: rated 4-5 weeks after treatment
Method in brief: as §2

ABUTH (Velvetleaf) = test: Postemergence herbicidal evaluation; assay type: in vivo, Abutilon theophrasti; conditions: postemergence
Method in brief: as §1

[8] = tested on: GLXMAW (Soybean, Williams); test: Postemergence herbicidal evaluation; assay type: in vivo, Glycine max, (L.) Merr. cv Williams; conditions: postemergence
Method in brief: as §1

Structure (SMILES): CCOC(=O)CN1C(=O)C(CC(=O)Nc2ccccc2)SC1=Nc1cc(-n2c(=O)cc(C(F)(F)F)n(C)c2=O)c(F)cc1Cl (centres unmarked) [Compound 68, Ethyl 2-{{2-chloro-5-[3,6-dihydro-3-methyl-2,6-dioxo-4-(trifluoromethyl)-1(2H)-pyrimidinyl]-4-fluorophenyl}imino}-4-oxo-5-[(phenylcarbamoyl)-methyl]-3-thiazolidineacetate]
- TRZAWR herbicidal rating ([1]; rate 0.0158 kg/ha): 3.0
- TRZAWR herbicidal rating ([1]; rate 0.0315 kg/ha): 3.5
- TRZAWR herbicidal rating ([1]; rate 0.0630 kg/ha): 4.0
- Preemergence herbicidal rating IPOHE ([2]; rate 0.0156 kg/ha): 0.0
- Preemergence herbicidal rating IPOHE ([2]; rate 0.0313 kg/ha): 0.0
- Preemergence herbicidal rating IPOHE ([2]; rate 0.0625 kg/ha): 0.0
- Preemergence herbicidal rating IPOHE ([2]; rate 0.1250 kg/ha): 0.0
- Preemergence herbicidal rating IPOHE ([2]; rate 0.2500 kg/ha): 6.0
- Preemergence herbicidal rating GALAP (GALAP (Galium); rate 0.0156 kg/ha): 0.0
- Preemergence herbicidal rating GALAP (GALAP (Galium); rate 0.0313 kg/ha): 0.0
- Preemergence herbicidal rating GALAP (GALAP (Galium); rate 0.0625 kg/ha): 0.0
- Preemergence herbicidal rating GALAP (GALAP (Galium); rate 0.1250 kg/ha): 0.0
- Preemergence herbicidal rating GALAP (GALAP (Galium); rate 0.2500 kg/ha): 0.0
- Herbicidal rating ECHORC ([3]; Rate 0.0313 kg/ha): 0.0
- Herbicidal rating ECHORC ([3]; Rate 0.0625 kg/ha): 5.0
- Herbicidal rating ECHORC ([3]; Rate 0.1250 kg/ha): 7.0
- Herbicidal rating ECHORC ([3]; Rate 0.2500 kg/ha): 7.0
- ECHCG herbicidal rating (ECHCG (Barnyardgrass) [4]; rate 0.0158 kg/ha): 2.0
- ECHCG herbicidal rating (ECHCG (Barnyardgrass) [4]; rate 0.0315 kg/ha): 2.0
- ECHCG herbicidal rating (ECHCG (Barnyardgrass) [4]; rate 0.0630 kg/ha): 5.0
- Preemergence herbicidal rating CHEAL ([5]; rate 0.0156 kg/ha): 2.0
- Preemergence herbicidal rating CHEAL ([5]; rate 0.0313 kg/ha): 9.0
- Preemergence herbicidal rating CHEAL ([5]; rate 0.0625 kg/ha): 9.0
- Preemergence herbicidal rating CHEAL ([5]; rate 0.1250 kg/ha): 9.0
- Preemergence herbicidal rating CHEAL ([5]; rate 0.2500 kg/ha): 9.0
- Preemergence herbicidal rating CASOB (CASOB (Sicklepod); rate 0.0156 kg/ha): 0.0
- Preemergence herbicidal rating CASOB (CASOB (Sicklepod); rate 0.0313 kg/ha): 0.0
- Preemergence herbicidal rating CASOB (CASOB (Sicklepod); rate 0.0625 kg/ha): 0.0
- Preemergence herbicidal rating CASOB (CASOB (Sicklepod); rate 0.1250 kg/ha): 0.0
- Preemergence herbicidal rating CASOB (CASOB (Sicklepod); rate 0.2500 kg/ha): 1.0
- SETVI herbicidal rating (SETVI (Foxtail, Green); rate 0.0158 kg/ha): 2.0
- SETVI herbicidal rating (SETVI (Foxtail, Green); rate 0.0315 kg/ha): 6.0
- SETVI herbicidal rating (SETVI (Foxtail, Green); rate 0.0630 kg/ha): 6.0
- Preemergence herbicidal rating ECHCG (ECHCG (Barnyardgrass) [6]; rate 0.0156 kg/ha): 0.0
- Preemergence herbicidal rating ECHCG (ECHCG (Barnyardgrass) [6]; rate 0.0313 kg/ha): 0.0
- Preemergence herbicidal rating ECHCG (ECHCG (Barnyardgrass) [6]; rate 0.0625 kg/ha): 0.0
- Preemergence herbicidal rating ECHCG (ECHCG (Barnyardgrass) [6]; rate 0.1250 kg/ha): 0.0
- Preemergence herbicidal rating ECHCG (ECHCG (Barnyardgrass) [6]; rate 0.2500 kg/ha): 1.0
- AMBEL herbicidal rating (AMBEL (Ragweed, Common); rate 0.0158 kg/ha): 9.0
- AMBEL herbicidal rating (AMBEL (Ragweed, Common); rate 0.0315 kg/ha): 9.0
- AMBEL herbicidal rating (AMBEL (Ragweed, Common); rate 0.0630 kg/ha): 9.0
- IPOHE herbicidal rating ([7]; rate 0.0158 kg/ha): 9.0
- IPOHE herbicidal rating ([7]; rate 0.0315 kg/ha): 9.0
- IPOHE herbicidal rating ([7]; rate 0.0630 kg/ha): 9.0
- Preemergence herbicidal rating ZEAMX (ZEAMX (Corn, Field); rate 0.0156 kg/ha): 0.0
- Preemergence herbicidal rating ZEAMX (ZEAMX (Corn, Field); rate 0.0313 kg/ha): 0.0
- Preemergence herbicidal rating ZEAMX (ZEAMX (Corn, Field); rate 0.0625 kg/ha): 0.0
- Preemergence herbicidal rating ZEAMX (ZEAMX (Corn, Field); rate 0.1250 kg/ha): 1.0
- Preemergence herbicidal rating ZEAMX (ZEAMX (Corn, Field); rate 0.2500 kg/ha): 1.0
- ABUTH herbicidal rating (ABUTH (Velvetleaf); rate 0.0158 kg/ha): 7.0
- ABUTH herbicidal rating (ABUTH (Velvetleaf); rate 0.0315 kg/ha): 9.0
- ABUTH herbicidal rating (ABUTH (Velvetleaf); rate 0.0630 kg/ha): 7.0
- GLXMAW herbicidal rating ([8]; rate 0.0158 kg/ha): 6.0
- GLXMAW herbicidal rating ([8]; rate 0.0315 kg/ha): 5.5
- GLXMAW herbicidal rating ([8]; rate 0.0630 kg/ha): 7.0

Structure (SMILES): C[C@H](C(=O)O)N1C(=O)CSC1=Nc1cc(-n2c(=O)cc(C(F)(F)F)n(C)c2=O)c(F)cc1Cl [Compound 70, 2-{{2-Chloro-5-[3,6-dihydro-3-methyl-2,6-dioxo-4-(trifluoromethyl)-1(2H)-pyrimidinyl]-4-fluoro-phenyl}imino}-α-methyl-4-oxo-3-thiazolidineacetic acid, D-]
- TRZAWR herbicidal rating ([1]; rate 0.0158 kg/ha): 2.5
- TRZAWR herbicidal rating ([1]; rate 0.0315 kg/ha): 4.0
- TRZAWR herbicidal rating ([1]; rate 0.0630 kg/ha): 5.5
- Preemergence herbicidal rating IPOHE ([2]; rate 0.0156 kg/ha): 0.0
- Preemergence herbicidal rating IPOHE ([2]; rate 0.0313 kg/ha): 0.0
- Preemergence herbicidal rating IPOHE ([2]; rate 0.0625 kg/ha): 0.0
- Preemergence herbicidal rating IPOHE ([2]; rate 0.1250 kg/ha): 1.0
- Preemergence herbicidal rating IPOHE ([2]; rate 0.2500 kg/ha): 5.0
- Preemergence herbicidal rating GALAP (GALAP (Galium); rate 0.0156 kg/ha): 0.0
- Preemergence herbicidal rating GALAP (GALAP (Galium); rate 0.0313 kg/ha): 0.0
- Preemergence herbicidal rating GALAP (GALAP (Galium); rate 0.0625 kg/ha): 0.0
- Preemergence herbicidal rating GALAP (GALAP (Galium); rate 0.1250 kg/ha): 0.0
- Preemergence herbicidal rating GALAP (GALAP (Galium); rate 0.2500 kg/ha): 0.0
- Herbicidal rating ECHORC ([3]; Rate 0.0313 kg/ha): 0.0
- Herbicidal rating ECHORC ([3]; Rate 0.0625 kg/ha): 0.0
- Herbicidal rating ECHORC ([3]; Rate 0.1250 kg/ha): 0.0
- Herbicidal rating ECHORC ([3]; Rate 0.2500 kg/ha): 0.0
- ECHCG herbicidal rating (ECHCG (Barnyardgrass) [4]; rate 0.0158 kg/ha): 0.0
- ECHCG herbicidal rating (ECHCG (Barnyardgrass) [4]; rate 0.0315 kg/ha): 2.0
- ECHCG herbicidal rating (ECHCG (Barnyardgrass) [4]; rate 0.0630 kg/ha): 9.0
- Preemergence herbicidal rating CHEAL ([5]; rate 0.0156 kg/ha): 2.0
- Preemergence herbicidal rating CHEAL ([5]; rate 0.0313 kg/ha): 9.0
- Preemergence herbicidal rating CHEAL ([5]; rate 0.0625 kg/ha): 9.0
- Preemergence herbicidal rating CHEAL ([5]; rate 0.1250 kg/ha): 9.0
- Preemergence herbicidal rating CHEAL ([5]; rate 0.2500 kg/ha): 9.0
- Preemergence herbicidal rating CASOB (CASOB (Sicklepod); rate 0.0156 kg/ha): 0.0
- Preemergence herbicidal rating CASOB (CASOB (Sicklepod); rate 0.0313 kg/ha): 0.0
- Preemergence herbicidal rating CASOB (CASOB (Sicklepod); rate 0.0625 kg/ha): 0.0
- Preemergence herbicidal rating CASOB (CASOB (Sicklepod); rate 0.1250 kg/ha): 1.0
- Preemergence herbicidal rating CASOB (CASOB (Sicklepod); rate 0.2500 kg/ha): 0.0
- SETVI herbicidal rating (SETVI (Foxtail, Green); rate 0.0158 kg/ha): 1.0
- SETVI herbicidal rating (SETVI (Foxtail, Green); rate 0.0315 kg/ha): 2.0
- SETVI herbicidal rating (SETVI (Foxtail, Green); rate 0.0630 kg/ha): 9.0
- Preemergence herbicidal rating ECHCG (ECHCG (Barnyardgrass) [6]; rate 0.0156 kg/ha): 0.0
- Preemergence herbicidal rating ECHCG (ECHCG (Barnyardgrass) [6]; rate 0.0313 kg/ha): 0.0
- Preemergence herbicidal rating ECHCG (ECHCG (Barnyardgrass) [6]; rate 0.0625 kg/ha): 0.0
- Preemergence herbicidal rating ECHCG (ECHCG (Barnyardgrass) [6]; rate 0.1250 kg/ha): 1.0
- Preemergence herbicidal rating ECHCG (ECHCG (Barnyardgrass) [6]; rate 0.2500 kg/ha): 1.0
- AMBEL herbicidal rating (AMBEL (Ragweed, Common); rate 0.0158 kg/ha): 6.0
- AMBEL herbicidal rating (AMBEL (Ragweed, Common); rate 0.0315 kg/ha): 6.0
- AMBEL herbicidal rating (AMBEL (Ragweed, Common); rate 0.0630 kg/ha): 7.0
- IPOHE herbicidal rating ([7]; rate 0.0158 kg/ha): 9.0
- IPOHE herbicidal rating ([7]; rate 0.0315 kg/ha): 9.0
- IPOHE herbicidal rating ([7]; rate 0.0630 kg/ha): 9.0
- Preemergence herbicidal rating ZEAMX (ZEAMX (Corn, Field); rate 0.0156 kg/ha): 0.0
- Preemergence herbicidal rating ZEAMX (ZEAMX (Corn, Field); rate 0.0313 kg/ha): 0.0
- Preemergence herbicidal rating ZEAMX (ZEAMX (Corn, Field); rate 0.0625 kg/ha): 0.0
- Preemergence herbicidal rating ZEAMX (ZEAMX (Corn, Field); rate 0.1250 kg/ha): 1.0
- Preemergence herbicidal rating ZEAMX (ZEAMX (Corn, Field); rate 0.2500 kg/ha): 3.0
- ABUTH herbicidal rating (ABUTH (Velvetleaf); rate 0.0158 kg/ha): 1.0
- ABUTH herbicidal rating (ABUTH (Velvetleaf); rate 0.0315 kg/ha): 6.0
- ABUTH herbicidal rating (ABUTH (Velvetleaf); rate 0.0630 kg/ha): 9.0
- GLXMAW herbicidal rating ([8]; rate 0.0158 kg/ha): 4.5
- GLXMAW herbicidal rating ([8]; rate 0.0315 kg/ha): 5.5
- GLXMAW herbicidal rating ([8]; rate 0.0630 kg/ha): 7.0
